Results as given in US7045320B2, “Methods for producing L-amino acids” (priority 2001, dated 2006).

Tests used:
Type in all cases: biochemical
[1] = target: T1, TrpE5 mutant anthranilate synthase (Escherichia coli, UniProt P00895, P21S); assay: Ki value of anthranilate synthase (AS) to L-tryptophan, TrpE5
T1 construct: endogenous in cells; host or cells: 5-methyltryptophan-resistant mutant of E. coli K12 YMC9 (gene later cloned as pE5)
Protocol: (§1) Following the culture for 24–48 hours at 37° C., 5-methyltryptophan resistant clones were seeded on the aforementioned agar medium. In order to examine properties of the obtained mutant strain, Ki value of AS to L-tryptophan was measured (Bauerle R. et al., Methods in Enzymology, 142, pp.366–386, 1987). As a result, the mutant strains could be classified into two classes. The class 1 mutant strains had feedback resistant anthranilate synthase. […] The AS genes of these mutant strains were cloned and their nucleotide sequences were determined. Chromosomal DNA of each mutant strain was isolated and digested with restriction enzymes NheI and ClaI to isolate a fragment of about 5 kb, and this fragment was ligated with the NheI/ClaI fragment (4158 bp) of pBR322.
(§2) E. coli KB 862 (trpE) (DSM7196) was transformed with the ligation reaction product. A clone that could grow on a minimal medium not containing L-tryptophan was selected. All the plasmids complementing the trpE mutation contained the NheI/ClaI fragment of 5 kb. Further, this 5 kb NheI/ClaI fragment contained trpE, trpD, a sequence about 0.8 kb upstream from trpE, and a sequence about 1 kb downstream from trpD. Differences in amino acid sequences of mutant AS encoded by plasmids (pE0, pE5, pE6, pE8) contained in the mutant strains and their Ki values are shown in Table 1.

[2] = target: T2, TrpE6 mutant anthranilate synthase (Escherichia coli, UniProt P00895, K50E/S40F); assay: Ki value of anthranilate synthase (AS) to L-tryptophan, TrpE6
T2 construct: endogenous in cells; host or cells: 5-methyltryptophan-resistant mutant of E. coli K12 YMC9 (gene later cloned as pE6)
T2 sequence (P00895 whole entry S40F/K50E): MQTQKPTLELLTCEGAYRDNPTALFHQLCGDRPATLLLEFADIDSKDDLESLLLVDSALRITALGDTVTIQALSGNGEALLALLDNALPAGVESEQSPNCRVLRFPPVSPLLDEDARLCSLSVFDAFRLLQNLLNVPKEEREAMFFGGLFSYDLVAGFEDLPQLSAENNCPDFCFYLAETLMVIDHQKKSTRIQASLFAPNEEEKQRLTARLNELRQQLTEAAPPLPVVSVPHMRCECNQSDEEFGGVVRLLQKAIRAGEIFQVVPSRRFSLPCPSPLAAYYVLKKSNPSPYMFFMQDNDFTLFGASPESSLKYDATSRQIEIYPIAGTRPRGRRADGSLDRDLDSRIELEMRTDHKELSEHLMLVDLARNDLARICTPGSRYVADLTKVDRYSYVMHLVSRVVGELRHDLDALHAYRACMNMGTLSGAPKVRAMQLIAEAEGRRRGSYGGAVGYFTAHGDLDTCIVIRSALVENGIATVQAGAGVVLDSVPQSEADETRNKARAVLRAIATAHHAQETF
T2 sequence (P00904 2-531, further chain): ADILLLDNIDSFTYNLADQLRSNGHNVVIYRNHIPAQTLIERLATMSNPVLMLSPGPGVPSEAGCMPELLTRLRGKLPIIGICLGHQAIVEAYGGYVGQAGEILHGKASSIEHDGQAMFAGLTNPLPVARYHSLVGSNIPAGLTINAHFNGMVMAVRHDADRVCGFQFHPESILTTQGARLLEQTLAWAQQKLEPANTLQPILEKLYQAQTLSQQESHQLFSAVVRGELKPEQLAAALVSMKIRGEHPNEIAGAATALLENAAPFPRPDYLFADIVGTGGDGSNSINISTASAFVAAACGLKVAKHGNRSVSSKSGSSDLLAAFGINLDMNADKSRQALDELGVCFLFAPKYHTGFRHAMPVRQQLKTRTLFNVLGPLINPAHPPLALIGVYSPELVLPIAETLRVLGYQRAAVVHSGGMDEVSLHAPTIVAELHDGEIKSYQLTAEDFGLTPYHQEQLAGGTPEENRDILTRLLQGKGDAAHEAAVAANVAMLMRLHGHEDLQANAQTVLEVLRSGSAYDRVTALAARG
Protocol: as §1, §2

[3] = target: T3, Wild type trpE anthranilate synthase (Escherichia coli, UniProt P00895); assay: Ki value of anthranilate synthase (AS) to L-tryptophan, wild type
T3 construct: endogenous in cells
T3 sequence (P00904 2-531): as the sequence (P00904 2-531, further chain) above
T3 sequence (P00895 whole entry): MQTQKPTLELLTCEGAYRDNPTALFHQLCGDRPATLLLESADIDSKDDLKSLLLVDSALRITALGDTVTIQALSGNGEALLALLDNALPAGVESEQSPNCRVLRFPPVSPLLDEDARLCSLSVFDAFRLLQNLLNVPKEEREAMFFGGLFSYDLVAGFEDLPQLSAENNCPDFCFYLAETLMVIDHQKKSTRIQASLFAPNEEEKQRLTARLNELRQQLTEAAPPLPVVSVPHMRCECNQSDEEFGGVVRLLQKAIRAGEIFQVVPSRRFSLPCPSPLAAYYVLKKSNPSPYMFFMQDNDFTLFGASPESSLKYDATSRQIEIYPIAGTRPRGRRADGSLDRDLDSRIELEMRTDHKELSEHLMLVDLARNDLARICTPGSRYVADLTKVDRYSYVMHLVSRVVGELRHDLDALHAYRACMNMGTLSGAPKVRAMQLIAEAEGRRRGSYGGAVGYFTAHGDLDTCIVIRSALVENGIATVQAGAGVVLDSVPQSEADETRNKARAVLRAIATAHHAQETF
Protocol: as §1, §2

[4] = target: T4, TrpE0 mutant anthranilate synthase (Escherichia coli, UniProt P00895, K50E); assay: Ki value of anthranilate synthase (AS) to L-tryptophan, TrpE0
T4 construct: endogenous in cells; host or cells: 5-methyltryptophan-resistant mutant of E. coli K12 YMC9 (gene later cloned as pE0)
T4 sequence (P00904 2-531): as the sequence (P00904 2-531, further chain) above
T4 sequence (P00895 whole entry K50E): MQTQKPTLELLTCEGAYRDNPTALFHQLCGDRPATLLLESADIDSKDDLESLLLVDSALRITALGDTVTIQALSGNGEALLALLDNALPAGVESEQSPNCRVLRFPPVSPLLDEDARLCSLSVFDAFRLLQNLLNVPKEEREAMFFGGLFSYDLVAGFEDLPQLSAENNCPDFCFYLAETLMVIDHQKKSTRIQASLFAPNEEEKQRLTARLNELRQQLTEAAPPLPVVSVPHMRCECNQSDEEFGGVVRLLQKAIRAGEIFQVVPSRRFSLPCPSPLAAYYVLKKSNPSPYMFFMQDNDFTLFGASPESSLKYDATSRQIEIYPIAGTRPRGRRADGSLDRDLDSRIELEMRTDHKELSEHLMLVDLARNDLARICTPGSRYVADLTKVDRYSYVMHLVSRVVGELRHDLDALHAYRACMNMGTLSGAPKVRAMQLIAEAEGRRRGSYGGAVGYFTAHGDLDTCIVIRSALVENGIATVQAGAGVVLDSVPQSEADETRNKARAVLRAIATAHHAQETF
Protocol: as §1, §2

T1 sequence (P00904 2-531): as the sequence (P00904 2-531, further chain) above
T1 sequence (P00895 whole entry P21S): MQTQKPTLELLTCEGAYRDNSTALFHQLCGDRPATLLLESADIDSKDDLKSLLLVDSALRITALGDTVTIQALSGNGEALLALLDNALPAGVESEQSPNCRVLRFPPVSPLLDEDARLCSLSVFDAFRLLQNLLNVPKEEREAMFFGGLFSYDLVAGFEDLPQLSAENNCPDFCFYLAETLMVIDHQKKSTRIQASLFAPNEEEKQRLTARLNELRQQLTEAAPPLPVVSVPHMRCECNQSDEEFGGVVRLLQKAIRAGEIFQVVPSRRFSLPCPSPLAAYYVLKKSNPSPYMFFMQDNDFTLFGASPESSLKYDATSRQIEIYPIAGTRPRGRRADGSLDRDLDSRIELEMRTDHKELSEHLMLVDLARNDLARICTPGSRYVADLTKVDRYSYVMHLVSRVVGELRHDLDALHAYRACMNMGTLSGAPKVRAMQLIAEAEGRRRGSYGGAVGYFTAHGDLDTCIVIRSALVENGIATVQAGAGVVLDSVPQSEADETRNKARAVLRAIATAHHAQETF

## N[C@@H](Cc1c[nH]c2ccccc12)C(=O)O [L-tryptophan]
[1]
  Ki: 3000 µM
[2]
  Ki: > 15000 µM
[3]
  Ki: 10 µM
[4]
  Ki: 100 µM
